Source: US5352804A, “Isolation and structure of Halistatin 2” (Arizona Board of Regents, a body corporate, acting on …, priority 1993, dated 1994)
Read-outs that look alike come from different tables or passages of the source.

Key:
DMS 114 = assay: NCI human tumor in vitro primary screen; format: cell-based; conditions: small cell lung cancer
DMS 273 = assay: NCI human tumor in vitro primary screen; format: cell-based; conditions: small cell lung cancer
[1] = read-out: Log10 GI50 (converted)
[2] = read-out: Log10 TGI (converted)
[3] = read-out: averaged negative log10 GI50 (converted)

Molecule `C=C1CC2CCC34CC5OC6C(O3)C3OC(CCC3OC6(O)C5O4)CC(=O)OC3C(CC4OC(CCC1O2)CC(C)C4=C)OC1CC2OC4(CC2OC1C3C)CC1OC2(CC(C)C3OC5CC(C(O)CO)OC5CC3O2)CC(C)C1O4` (stereo not drawn) [halistatin 2] has a GI50 (DMS 114; [1]) of 0.339 nM, an IC (TGI) (DMS 114; [2]) of 1.91 nM and a GI50 (DMS 114; [3]) of 0.339 nM. It also gave a GI50 (DMS 273; [1]) of 0.129 nM, an IC (TGI) (DMS 273; [2]) of 5.5 nM and a GI50 (DMS 273; [3]) of 0.129 nM.
